We go through 1 molecule from patent US8652492B2, “Wet granulation using a water sequestering agent” (Rigel Pharmaceuticals, Inc., priority 2007, dated 2014).

A short description of this data set: Bulk density (uncompressed, untapped powder). In kind it is physicochemical. The following applies: Compound 1 as synthesized, cotton like fluffy agglomerates. The protocol: As used herein, the term “bulk density” refers to the uncompressed, untapped powder bulk density, as measured by pouring an excess of powder sample through a funnel into a smooth metal vessel (e.g., a 500 mL volume cylinder), scraping off the excess from the heap above the rim of the vessel, measuring the remaining mass of powder and dividing the mass by the volume of the vessel.
Three 500 g batches of Compound 1 powder blends (see Table 3) were prepared according to the following method. A KG-5 High Shear Granulator with an 8-inch impeller diameter was used to preblend all ingredients (except magnesium stearate) at low (155 rpm), medium (405 rpm), or high (600 rpm) impeller speeds with the chopper speed of 1200 rpm for 2 minutes. Water was added at a rate of 30 to 31.5 g/min to the powder mix. After the full amount of water was added, the mixture was blended for an additional 2 minutes. The wet granules were dried with the MiniGlatt Fluid Bed Dryer at 60° C. to targeted LODs and the granule texture, size, shape, stickiness, etc visually inspected. Drying at various temperatures and times are evaluated also. […] The final blends were checked for degradation by HPLC, and physical properties determined such as, Bulk Density, Tapped Density, Carr's Index, Hausner Ratio and Flow Index by Flodex. […]

For `COc1cc(Nc2ncc(F)c(Nc3ccc4c(n3)N(COP(=O)([O-])[O-])C(=O)C(C)(C)O4)n2)cc(OC)c1OC.[Na+].[Na+]` [Compound 1, (6-(5-fluoro-2-(3,4,5-trimethoxyphenylamino)pyrimidin-4-ylamino)-2,2-dimethyl-3-oxo-2H-pyrido[3,2-b][1,4]oxazin-4(3H)-yl)methyl phosphate disodium salt], the bulk density is 0.15 to 0.30 g/mL.
